According to patent publication US20230213525A1, “DETECTING MICROBIAL INFECTION IN WOUNDS” (QUALIZYME DIAGNOSTICS GMBH & CO KG, priority 2016, published 2023):
Values belong to the molecule of their own block, whether it stands above or below them.

Columns and labels:
Assay type in all cases: biochemical
MPO = target: T1, MPO (Homo sapiens, UniProt P05164); assay: Colorimetric enzyme assay for detection of myeloperoxidase activity; conditions: 1 mg/mL, pH 6.4, 5 mM H2O2
T1 sequence (P05164 49-745): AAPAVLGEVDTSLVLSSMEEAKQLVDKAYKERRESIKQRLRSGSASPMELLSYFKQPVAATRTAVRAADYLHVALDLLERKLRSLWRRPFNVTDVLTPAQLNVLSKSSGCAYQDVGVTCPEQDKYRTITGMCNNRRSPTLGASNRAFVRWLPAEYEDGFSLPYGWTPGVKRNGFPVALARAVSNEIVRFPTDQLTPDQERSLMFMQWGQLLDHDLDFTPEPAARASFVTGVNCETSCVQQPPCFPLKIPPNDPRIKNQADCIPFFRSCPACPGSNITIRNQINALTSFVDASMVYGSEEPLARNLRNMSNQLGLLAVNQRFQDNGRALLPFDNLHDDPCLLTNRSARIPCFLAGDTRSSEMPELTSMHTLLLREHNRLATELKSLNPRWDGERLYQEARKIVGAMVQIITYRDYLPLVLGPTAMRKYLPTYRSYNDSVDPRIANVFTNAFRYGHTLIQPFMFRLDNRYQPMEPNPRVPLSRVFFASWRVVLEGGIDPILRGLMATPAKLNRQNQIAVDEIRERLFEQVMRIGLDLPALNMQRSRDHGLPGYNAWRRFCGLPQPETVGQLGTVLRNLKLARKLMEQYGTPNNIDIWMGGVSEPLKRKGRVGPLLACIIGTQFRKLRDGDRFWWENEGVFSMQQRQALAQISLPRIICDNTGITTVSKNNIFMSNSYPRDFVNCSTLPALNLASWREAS

Phospholipase A2 [1] = assay: Phospholipase A2 based test, liquid system, wound fluid; conditions: room temperature, 30 minutes
Procedure: Preparation of diagnostic system. For this diagnostic tool, 4-Nitro-3- octanoylbenzoic acid as Phospholipase A2 - substrate was used. 4-Nitro-3-octanoylbenzoic acid (1.7 mM) is dissolved in assay buffer containing 50 mM Tris/HCl buffer pH 7.2, 150 mM KCL and 10 mM CaC12. 190 µl of the buffer are pipetted into a microtiterplate.
(§1) This mixture is incubated at room temperature for 30 minutes.

Phospholipase A2 [2] = assay: Phospholipase A2 based test, liquid system, sputum; conditions: room temperature, 30 minutes
Procedure: For this diagnostic tool, 4-Nitro-3-octanoylbenzoic acid as Phospholipase A2 - substrate was used. 4-Nitro-3-octanoylbenzoic acid (1.7 mM) is dissolved in assay buffer containing 50 mM Tris/HCl buffer pH 7.2, 150 mM KCL and 10 mM CaC12. 190 µl of the buffer are pipetted into a microtiterplate.
as §1

Myeloperoxidase [3] = target: T2, Myeloperoxidase (Homo sapiens, UniProt P05164); assay: Myeloperoxidase based test, cellulose based system, sputum; conditions: filter paper discs, H202, 5 minutes
T2 sequence (P05164 49-745): T1 sequence (P05164 49-745)
Procedure: 1.5 µl of H202 (50 mM) and 1.5 µl of the substrates (109 mM ABTS, 454 mM TMB, 230 mM Fast Blue, x mM Guaiacol, x mM 4-Amino-3-methoxy benzoic acid) were incubated on small Whatmann Filterpaper discs.

Catalase [4] = assay: Catalase based test, liquid system, sputum; conditions: room temperature, 30 minutes
Procedure: For this diagnostic tool: Purpald as substrate for catalase was used. Purpalt is dissolved in water (50-100 mM?). 200 µl of substrate solution are pipetted into a microtiterplate.
as §1

Catalase [5] = assay: Catalase based test, liquid system, wound fluid; conditions: room temperature, 30 minutes
Procedure: For this diagnostic tool: Purpald as substrate for Catalase was used. Purpalt is dissolved in water (50-100 mM). 200 µl of substrate solution are pipetted into a microtiterplate.
as §1

Myeloperoxidase [6] = target: T2, Myeloperoxidase; assay: Myeloperoxidase based test, liquid system, sputum; conditions: succinate buffer pH 5.4, H202, 5 minutes
Phospholipase C = Phospholipase C based test, liquid system, wound fluid; conditions: room temperature, 30 minutes, visual inspection
Procedure: For this diagnostic tool, p-Nitrophenylphosphorylcholine as substrate for Phospholipase C was used. p-Mtrophenylphosphorylcholine is dissolved in water (50-100 mM). A 250 mM: Tris/HCi buffer with 70% Sorbitol pH 7.2 was used as assay buffer. 230 µl of the buffer and 100 µl of the substrate are pipetted into a microtiterplate.
as §1

[7] = infected wound fluid samples A, B, C
[8] = non infected wound fluid samples D, E, F
[9] = infected sputum samples A, B, C
[10] = non infected sputum samples D, E, F

colour of solution upon MPO oxidation (MPO): turned brownish
SMILES: Nc1ccc(C(=O)O)cc1N [3,4-Diamino benzoic acid]

SMILES: CCCCCCCC(=O)c1cc(C(=O)O)ccc1[N+](=O)[O-] [4-Nitro-3-octanoylbenzoic acid]
Test response (Phospholipase A2 [1]; [7]): yellow
Test response (Phospholipase A2 [1]; [8]): No colour change
Test response (Phospholipase A2 [2]; [9]): yellow
Test response (Phospholipase A2 [2]; [10]): No colour change

Test response (Myeloperoxidase [3]; infected sputum samples A, B): brown
Test response (Myeloperoxidase [3]; non infected sputum samples C, D): No colour change
SMILES: COc1cc(C(=O)O)ccc1N [Compound 4A3Mba, 4-Amino-3-methoxy benzoic acid]

SMILES: NNc1n[nH]c(=S)n1N [Purpald]
Test response (Catalase [4]; [9]): yellow
Test response (Catalase [4]; non-infected sputum samples D, E, F): No colour change
Test response (Catalase [5]; [7]): yellow
Test response (Catalase [5]; [8]): No colour change

SMILES: Cc1cc(-c2cc(C)c(N)c(C)c2)cc(C)c1N [TMB, 3, 3′, 5, 5′ -Tetramethylbenzidine]
Test response (Myeloperoxidase [6]; [9]): blue
Test response (Myeloperoxidase [6]; [10]): No colour change

SMILES: C[N+](C)(C)CCOP(=O)([O-])Oc1ccc([N+](=O)[O-])cc1 [p-Nitrophenylphosphorylcholine]
Test response (Phospholipase C; [7]): yellow
Test response (Phospholipase C; non-infected wound fluid samples D, E, F): No colour change
